# Literature values as cited in US7666392B2, “Click chemistry-derived cyclopeptide derivatives as imaging agents for integrins” (Siemens Medical Solutions USA, Inc., priority 2006, dated 2010).
substance,measurement,setting,value
c(RGDyV),tumor uptake in vivo,125I-labeled,receptor-specific tumor uptake in vivo
same,tumor washout and excretion,in vivo,rapid tumor washout and unfavorable hepatobiliary excretion
